The values that follow come from US20110009403A1, “2-MORPHOLINYLPURINES AS INHIBITORS OF PI3K” (S*BIO Pte Ltd., priority 2007, published 2011).

Where only a bound is given, the exact number is not on record here.

For test [1], the system named is human breast cancer cell lines. Particulars: six of eight cancer lines inhibited; cited from earlier work.
In the next test the target is mTOR (Homo sapiens, UniProt P42345). Put plainly: mTOR assay (phosphorylation of 4eBP1, [γ33P]-ATP filter plate). It counts as biochemical. Particulars: 10 μM ATP, 1 hour at room temperature.
mTOR, sequence (P42345 1382-2549 limits assumed): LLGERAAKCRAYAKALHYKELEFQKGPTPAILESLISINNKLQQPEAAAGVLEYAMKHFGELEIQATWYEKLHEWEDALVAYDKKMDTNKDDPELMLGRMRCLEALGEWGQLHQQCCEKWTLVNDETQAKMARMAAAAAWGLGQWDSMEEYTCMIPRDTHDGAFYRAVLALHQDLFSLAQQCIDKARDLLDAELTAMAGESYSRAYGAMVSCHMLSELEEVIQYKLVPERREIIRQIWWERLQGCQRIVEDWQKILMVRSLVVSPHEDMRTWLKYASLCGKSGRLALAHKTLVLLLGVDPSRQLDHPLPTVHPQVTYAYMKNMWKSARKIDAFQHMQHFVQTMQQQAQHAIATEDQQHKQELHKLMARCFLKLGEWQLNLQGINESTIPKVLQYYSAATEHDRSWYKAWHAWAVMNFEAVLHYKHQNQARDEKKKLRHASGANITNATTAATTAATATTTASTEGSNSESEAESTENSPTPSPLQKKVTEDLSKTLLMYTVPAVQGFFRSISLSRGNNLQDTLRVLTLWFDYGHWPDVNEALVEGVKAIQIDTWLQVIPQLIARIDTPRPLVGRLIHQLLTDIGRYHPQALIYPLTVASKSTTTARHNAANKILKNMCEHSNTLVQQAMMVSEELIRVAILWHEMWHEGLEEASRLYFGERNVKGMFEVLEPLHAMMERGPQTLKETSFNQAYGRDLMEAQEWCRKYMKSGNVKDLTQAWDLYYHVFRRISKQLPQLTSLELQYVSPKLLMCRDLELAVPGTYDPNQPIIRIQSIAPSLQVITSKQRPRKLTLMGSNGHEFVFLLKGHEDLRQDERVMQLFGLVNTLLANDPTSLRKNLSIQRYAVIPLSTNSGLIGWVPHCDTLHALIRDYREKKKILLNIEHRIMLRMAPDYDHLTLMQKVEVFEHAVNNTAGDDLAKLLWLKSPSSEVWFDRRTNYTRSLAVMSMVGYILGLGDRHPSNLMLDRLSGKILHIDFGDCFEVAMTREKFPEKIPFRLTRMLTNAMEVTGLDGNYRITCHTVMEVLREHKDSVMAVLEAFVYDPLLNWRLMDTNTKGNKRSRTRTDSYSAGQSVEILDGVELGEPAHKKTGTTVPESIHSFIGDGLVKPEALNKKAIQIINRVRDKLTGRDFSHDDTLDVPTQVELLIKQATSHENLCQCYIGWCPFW
Another test has as its target T1, PI3K p110α/p85 (Homo sapiens, UniProt P42336).
T1 construct: made in house
Put plainly: PI3K assay ([γ33P]ATP, PtdIns/PtdSer coated plates). It counts as biochemical. The conditions noted are these: 2 μM ATP, 1 hour at RT; read-out: IC50 (PI3Kα).

For another test, the system named is PC3. The test can be described thus: Cell-based proliferation assay, PC3. The conditions noted are these: Homo sapiens, PC-3; PC3 cells, 96 h treatment. As for the experimental part:
(§1) Human cancer cell lines PC3 and DU145 (human prostate cancer cell lines), were obtained from ATCC. They were cultured in the media according to the ATCC work instructions. PC3 and DU145 cells were seeded at 1,000 cells per well in 96-well plates, respectively. The plates were incubated at 37° C., 5% CO2, for 24 h. Cells were treated with compounds at various concentrations for 96 h. Cell proliferation was then quantified using Celltiter96 Aqueous One Solution Cell Proliferation Assay from Promega (Madison Wis.). Dose response curves were plotted to determine IC50 values for the compounds using XL-fit (ID Business Solution, Emeryville, Calif.).

The test system of a further test is DU145. The test can be described thus: Cell-based proliferation assay, DU145. The conditions noted are these: Homo sapiens, DU-145; DU145 cells, 96 h treatment. On the procedure:
as §1

T1 sequence (P42336 whole entry): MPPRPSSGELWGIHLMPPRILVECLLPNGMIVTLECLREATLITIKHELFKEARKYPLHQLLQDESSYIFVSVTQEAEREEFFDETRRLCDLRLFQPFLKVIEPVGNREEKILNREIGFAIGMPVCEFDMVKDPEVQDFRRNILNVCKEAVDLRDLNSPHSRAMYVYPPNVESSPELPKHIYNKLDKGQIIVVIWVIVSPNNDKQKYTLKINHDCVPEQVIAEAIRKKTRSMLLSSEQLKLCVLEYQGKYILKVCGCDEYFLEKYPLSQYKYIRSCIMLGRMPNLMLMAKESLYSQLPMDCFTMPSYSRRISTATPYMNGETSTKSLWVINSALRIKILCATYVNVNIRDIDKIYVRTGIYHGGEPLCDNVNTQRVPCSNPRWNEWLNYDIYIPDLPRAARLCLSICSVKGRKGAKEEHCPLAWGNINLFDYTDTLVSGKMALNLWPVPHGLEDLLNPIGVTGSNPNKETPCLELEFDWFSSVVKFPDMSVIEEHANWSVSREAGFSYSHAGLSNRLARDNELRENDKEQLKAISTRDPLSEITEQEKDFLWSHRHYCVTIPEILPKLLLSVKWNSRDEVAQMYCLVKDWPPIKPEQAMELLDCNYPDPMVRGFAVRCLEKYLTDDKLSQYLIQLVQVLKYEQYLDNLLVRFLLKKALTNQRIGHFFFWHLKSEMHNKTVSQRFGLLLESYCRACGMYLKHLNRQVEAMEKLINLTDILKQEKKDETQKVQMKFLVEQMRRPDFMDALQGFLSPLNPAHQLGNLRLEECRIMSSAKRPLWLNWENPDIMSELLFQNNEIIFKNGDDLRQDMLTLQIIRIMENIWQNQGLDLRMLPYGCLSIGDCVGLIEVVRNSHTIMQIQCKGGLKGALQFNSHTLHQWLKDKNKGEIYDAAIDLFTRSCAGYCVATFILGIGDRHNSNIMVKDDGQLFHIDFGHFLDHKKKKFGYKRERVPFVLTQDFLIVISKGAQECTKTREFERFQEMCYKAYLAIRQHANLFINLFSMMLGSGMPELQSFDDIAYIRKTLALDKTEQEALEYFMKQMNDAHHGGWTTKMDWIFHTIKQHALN
T1 sequence (P27986 whole entry partner): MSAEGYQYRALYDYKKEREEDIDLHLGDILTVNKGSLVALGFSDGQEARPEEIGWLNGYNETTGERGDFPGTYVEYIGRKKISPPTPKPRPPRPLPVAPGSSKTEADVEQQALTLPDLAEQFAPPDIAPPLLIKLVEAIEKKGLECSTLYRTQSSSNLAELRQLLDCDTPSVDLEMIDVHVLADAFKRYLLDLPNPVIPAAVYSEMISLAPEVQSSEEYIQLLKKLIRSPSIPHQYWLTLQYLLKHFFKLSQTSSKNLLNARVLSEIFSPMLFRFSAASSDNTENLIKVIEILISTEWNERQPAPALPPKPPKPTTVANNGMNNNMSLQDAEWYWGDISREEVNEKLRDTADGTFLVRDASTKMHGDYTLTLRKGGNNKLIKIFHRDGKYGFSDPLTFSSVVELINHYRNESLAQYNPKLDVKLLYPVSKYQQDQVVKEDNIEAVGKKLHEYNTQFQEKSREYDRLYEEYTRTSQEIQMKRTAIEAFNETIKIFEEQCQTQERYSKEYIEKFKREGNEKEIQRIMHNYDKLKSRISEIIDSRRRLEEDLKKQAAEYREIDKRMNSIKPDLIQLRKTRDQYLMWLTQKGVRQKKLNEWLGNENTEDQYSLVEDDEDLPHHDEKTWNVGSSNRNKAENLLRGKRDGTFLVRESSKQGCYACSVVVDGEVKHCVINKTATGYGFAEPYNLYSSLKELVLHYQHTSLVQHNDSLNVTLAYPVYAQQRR

For `CO[C@H]1C[C@@H]2CC[C@@H](C)[C@@](O)(O2)C(=O)C(=O)N2CCCC[C@H]2C(=O)O[C@H]([C@H](C)C[C@@H]2CC[C@@H](OC(=O)C(C)(CO)CO)[C@H](OC)C2)CC(=O)[C@H](C)/C=C(\C)[C@@H](O)[C@@H](OC)C(=O)[C@H](C)C[C@H](C)/C=C/C=C/C=C/1C` [CCI-779], the IC50 – broadly, the concentration needed to halve the response being measured – in test [1] is on record as “low nanomolar range”.

For `Cc1cccc(-n2cnc3c(-c4cccc(O)c4)nc(N4CCOCC4)nc32)c1` [Compound 27, 3-(2-Morpholin-4-yl-9-(3-methylphenyl)-9H-purin-6-yl)-phenol], the IC50 is under 1 µM on mTOR, under 1 µM on PI3K p110α/p85 and at most 1 µM in the test with PC3.

Turning to `c1cc(-c2nc(N3CCOCC3)nc3c2ncn3CC2CC2)c2cc[nH]c2c1` [Compound 51], the values for the IC50 against mTOR, at PI3K p110α/p85 and in the test on DU145 were under 1 µM, under 1 µM and 1 to 5 µM, respectively.

Regarding `Oc1cccc(-c2nc(N3CCOCC3)nc3c2ncn3C2CCCC2)c1` [Compound 54], the IC50 at mTOR is under 1 µM; at PI3K p110α/p85 it was under 1 µM; in the test on PC3 it was at most 1 µM; in the test with DU145 it was at most 1 µM.

As to `c1cc(-c2nc(N3CCOCC3)nc3c2ncn3C2CCCC2)c2cc[nH]c2c1` [Compound 63], the IC50 is under 1 µM against mTOR, under 1 µM on PI3K p110α/p85 and 1 to 5 µM with DU145.

On to `CC(C)C(C)n1cnc2c(-c3cccc4[nH]ccc34)nc(N3CCOCC3)nc21` (centres unmarked) [Compound 101], for which the IC50 is under 1 µM on mTOR, under 1 µM at PI3K p110α/p85 and at most 1 µM in the test with PC3.
